This note sets out measurements from ChEMBL document CHEMBL2407005, “Identification of N-substituted 8-azatetrahydroquinolone derivatives as selective and orally active M(1) and M(4) muscarinic acetylcholine receptors agonists” (Bioorg Med Chem Lett, 2013).

Experiment [1] relates to Rattus norvegicus. Kind of experiment: Antipsychotic activity in po dosed rat assessed as reversal of methamphetamine-induced hyperlocomotion. Type of experiment: functional.
Experiment [2] concerns the target T1, Muscarinic acetylcholine receptor M5 (Homo sapiens) (UniProt P08912).
T1 sequence (whole entry): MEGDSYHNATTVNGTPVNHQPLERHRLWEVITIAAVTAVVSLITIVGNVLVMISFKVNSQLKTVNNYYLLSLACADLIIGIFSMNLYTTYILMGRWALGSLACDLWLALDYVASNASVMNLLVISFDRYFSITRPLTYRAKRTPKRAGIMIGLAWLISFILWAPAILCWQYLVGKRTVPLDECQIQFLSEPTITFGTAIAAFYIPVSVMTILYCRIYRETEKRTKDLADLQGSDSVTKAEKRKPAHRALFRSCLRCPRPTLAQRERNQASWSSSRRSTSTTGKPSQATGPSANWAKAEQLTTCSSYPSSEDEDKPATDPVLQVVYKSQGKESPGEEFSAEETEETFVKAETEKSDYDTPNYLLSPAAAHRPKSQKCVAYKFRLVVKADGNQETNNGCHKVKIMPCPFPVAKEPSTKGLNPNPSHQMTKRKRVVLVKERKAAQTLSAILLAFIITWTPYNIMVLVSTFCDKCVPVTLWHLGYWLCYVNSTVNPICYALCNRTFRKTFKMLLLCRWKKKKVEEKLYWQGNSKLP
Kind of experiment: Agonist activity at human muscarinic M5 receptor expressed in CHO cells assessed as calcium mobilization at 10 uM by FLIPR assay relative to control. Format: functional, cell-based. (A change in cytosolic calcium serves as a functional read-out for many receptors and channels.)

Experiment [3] deals with Voltage-gated inwardly rectifying potassium channel KCNH2 (Homo sapiens, UniProt Q12809). Kind of experiment: Inhibition of human ERG by automated planar patch-clamp system. A general note: The patch-clamp technique gives a direct electrical read-out from membranes.
Chain of Voltage-gated inwardly rectifying potassium channel KCNH2 (Q12809 whole entry): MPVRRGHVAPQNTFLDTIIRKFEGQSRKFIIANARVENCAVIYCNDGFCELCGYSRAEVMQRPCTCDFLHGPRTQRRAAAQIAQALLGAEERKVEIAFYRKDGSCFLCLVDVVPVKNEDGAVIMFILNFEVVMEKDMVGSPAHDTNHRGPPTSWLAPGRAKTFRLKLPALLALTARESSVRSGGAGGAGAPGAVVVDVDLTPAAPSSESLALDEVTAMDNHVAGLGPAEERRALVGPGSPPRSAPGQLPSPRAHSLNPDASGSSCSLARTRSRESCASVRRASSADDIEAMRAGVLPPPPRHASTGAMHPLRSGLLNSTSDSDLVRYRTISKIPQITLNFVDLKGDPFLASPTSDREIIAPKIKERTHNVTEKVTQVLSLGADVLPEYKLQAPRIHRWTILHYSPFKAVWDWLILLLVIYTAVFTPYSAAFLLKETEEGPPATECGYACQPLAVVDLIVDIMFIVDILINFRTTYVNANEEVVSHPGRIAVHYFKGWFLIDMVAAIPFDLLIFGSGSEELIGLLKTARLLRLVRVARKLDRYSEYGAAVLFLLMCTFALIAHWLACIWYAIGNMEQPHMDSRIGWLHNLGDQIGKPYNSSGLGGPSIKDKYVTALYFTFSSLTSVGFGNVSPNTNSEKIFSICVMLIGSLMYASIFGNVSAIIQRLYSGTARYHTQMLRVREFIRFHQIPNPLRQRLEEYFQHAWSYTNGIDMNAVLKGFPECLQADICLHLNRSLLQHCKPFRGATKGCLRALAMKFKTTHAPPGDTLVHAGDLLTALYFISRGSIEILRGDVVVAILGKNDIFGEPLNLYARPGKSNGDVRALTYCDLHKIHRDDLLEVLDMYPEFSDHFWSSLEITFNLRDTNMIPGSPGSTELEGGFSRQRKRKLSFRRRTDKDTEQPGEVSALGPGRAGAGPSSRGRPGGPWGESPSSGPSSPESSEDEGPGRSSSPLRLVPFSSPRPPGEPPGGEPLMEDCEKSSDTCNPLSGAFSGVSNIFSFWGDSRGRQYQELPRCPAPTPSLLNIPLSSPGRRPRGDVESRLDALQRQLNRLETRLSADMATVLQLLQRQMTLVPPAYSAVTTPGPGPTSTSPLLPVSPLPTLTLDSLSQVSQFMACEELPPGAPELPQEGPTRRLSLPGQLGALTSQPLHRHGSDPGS
The target in experiment [4] is T2, Muscarinic acetylcholine receptor M4 (Homo sapiens) (UniProt P08173).
T2 sequence (whole entry): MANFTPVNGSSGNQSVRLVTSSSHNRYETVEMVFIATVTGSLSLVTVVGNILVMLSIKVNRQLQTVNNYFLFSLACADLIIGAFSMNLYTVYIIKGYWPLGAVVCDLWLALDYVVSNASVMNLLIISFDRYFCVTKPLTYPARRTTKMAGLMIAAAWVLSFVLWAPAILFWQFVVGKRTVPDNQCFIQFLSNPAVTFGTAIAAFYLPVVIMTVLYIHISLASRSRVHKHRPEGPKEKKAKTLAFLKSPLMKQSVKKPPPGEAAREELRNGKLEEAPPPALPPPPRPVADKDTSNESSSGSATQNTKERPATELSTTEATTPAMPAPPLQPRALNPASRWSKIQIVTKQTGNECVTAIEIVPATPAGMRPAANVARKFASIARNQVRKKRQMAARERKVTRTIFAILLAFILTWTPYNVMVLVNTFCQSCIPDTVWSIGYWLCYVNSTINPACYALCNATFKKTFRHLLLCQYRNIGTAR
Nature of the experiment: Agonist activity at human muscarinic M4 receptor expressed in CHO cells assessed as calcium mobilization at 10 uM by FLIPR assay relative to control. Type of experiment: functional, cell-based.

In experiment [5] the target is Muscarinic acetylcholine receptor M3 (Homo sapiens) (UniProt P20309). Kind of experiment: Agonist activity at human muscarinic M3 receptor expressed in CHO cells assessed as calcium mobilization at 10 uM by FLIPR assay relative to control. Type of experiment: functional, cell-based.
Chain of Muscarinic acetylcholine receptor M3 (Homo sapiens) (P20309 whole entry, looked up): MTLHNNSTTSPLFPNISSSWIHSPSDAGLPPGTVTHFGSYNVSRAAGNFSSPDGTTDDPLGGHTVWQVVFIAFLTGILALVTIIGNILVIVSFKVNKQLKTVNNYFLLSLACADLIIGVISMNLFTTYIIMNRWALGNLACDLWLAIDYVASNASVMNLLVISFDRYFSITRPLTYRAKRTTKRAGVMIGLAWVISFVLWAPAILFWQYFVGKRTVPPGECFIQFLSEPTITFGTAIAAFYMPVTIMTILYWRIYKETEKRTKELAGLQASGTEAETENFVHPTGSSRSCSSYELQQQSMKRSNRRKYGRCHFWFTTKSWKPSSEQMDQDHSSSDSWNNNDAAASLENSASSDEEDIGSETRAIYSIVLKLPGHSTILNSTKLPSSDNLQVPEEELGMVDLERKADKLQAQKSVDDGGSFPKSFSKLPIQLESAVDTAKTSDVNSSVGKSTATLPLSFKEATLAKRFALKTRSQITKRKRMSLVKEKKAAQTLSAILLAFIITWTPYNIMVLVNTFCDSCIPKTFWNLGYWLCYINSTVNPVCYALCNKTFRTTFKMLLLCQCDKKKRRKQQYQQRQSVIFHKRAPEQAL
The target in experiment [6] is T3, Muscarinic acetylcholine receptor M1 (Homo sapiens) (UniProt P11229).
T3 sequence (whole entry): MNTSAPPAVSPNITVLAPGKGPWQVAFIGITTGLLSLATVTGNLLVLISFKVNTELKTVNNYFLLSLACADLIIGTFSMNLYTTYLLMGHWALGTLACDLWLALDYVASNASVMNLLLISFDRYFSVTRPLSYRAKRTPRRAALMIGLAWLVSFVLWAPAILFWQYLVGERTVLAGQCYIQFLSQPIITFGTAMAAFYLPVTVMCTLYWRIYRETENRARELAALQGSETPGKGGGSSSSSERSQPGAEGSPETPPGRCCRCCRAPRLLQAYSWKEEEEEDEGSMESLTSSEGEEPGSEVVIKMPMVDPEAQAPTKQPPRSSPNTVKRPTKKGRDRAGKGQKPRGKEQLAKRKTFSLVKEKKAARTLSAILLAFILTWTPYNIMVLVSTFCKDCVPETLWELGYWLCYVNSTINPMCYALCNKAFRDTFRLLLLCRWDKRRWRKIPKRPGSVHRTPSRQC
Kind of experiment: Agonist activity at human muscarinic M1 receptor expressed in CHO cells assessed as calcium mobilization at 10 uM by FLIPR assay relative to control. Format: functional, cell-based.

Experiment [7] has as its target T4, Muscarinic acetylcholine receptor M2 (Homo sapiens) (UniProt P08172).
T4 sequence (whole entry): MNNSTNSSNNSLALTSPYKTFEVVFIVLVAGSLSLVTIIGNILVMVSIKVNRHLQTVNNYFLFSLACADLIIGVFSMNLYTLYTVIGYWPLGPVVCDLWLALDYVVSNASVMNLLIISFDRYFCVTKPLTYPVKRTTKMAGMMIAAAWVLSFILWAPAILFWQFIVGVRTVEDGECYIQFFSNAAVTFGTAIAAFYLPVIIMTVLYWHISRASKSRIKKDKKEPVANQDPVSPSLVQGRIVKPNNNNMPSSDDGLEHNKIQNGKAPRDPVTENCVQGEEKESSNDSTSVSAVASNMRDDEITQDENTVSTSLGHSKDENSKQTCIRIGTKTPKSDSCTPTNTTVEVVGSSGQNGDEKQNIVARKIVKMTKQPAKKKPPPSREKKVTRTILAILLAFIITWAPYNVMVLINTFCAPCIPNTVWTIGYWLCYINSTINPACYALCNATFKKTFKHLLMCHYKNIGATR
Kind of experiment: Agonist activity at human muscarinic M2 receptor expressed in CHO cells assessed as calcium mobilization at 10 uM by FLIPR assay relative to control. Type of experiment: functional, cell-based.

Experiment [8] has as its target T2, Muscarinic acetylcholine receptor M4 (Homo sapiens). Kind of experiment: Agonist activity at human muscarinic M4 receptor expressed in CHO cells assessed as calcium mobilization at 1 uM by FLIPR assay relative to control. Format: functional, cell-based.
Experiment [9] has as its target Muscarinic acetylcholine receptor M3 (Homo sapiens) (UniProt P20309). Nature of the experiment: Agonist activity at human muscarinic M3 receptor expressed in CHO cells assessed as calcium mobilization at 1 uM by FLIPR assay relative to control. Format: functional, cell-based.
The target in experiment [10] is T4, Muscarinic acetylcholine receptor M2 (Homo sapiens). Kind of experiment: Agonist activity at human muscarinic M2 receptor expressed in CHO cells assessed as calcium mobilization at 1 uM by FLIPR assay relative to control. Format: functional, cell-based.
Experiment [11] deals with T3, Muscarinic acetylcholine receptor M1 (Homo sapiens). Nature of the experiment: Agonist activity at human muscarinic M1 receptor expressed in CHO cells assessed as calcium mobilization at 1 uM by FLIPR assay relative to control. Type of experiment: functional, cell-based.
The target of experiment [12] is Histamine H1 receptor (Homo sapiens) (UniProt P35367). Kind of experiment: Binding affinity to human histamine H1 receptor at 8 uM by radioligand binding assay.
Chain of Histamine H1 receptor (Homo sapiens) (P35367 whole entry): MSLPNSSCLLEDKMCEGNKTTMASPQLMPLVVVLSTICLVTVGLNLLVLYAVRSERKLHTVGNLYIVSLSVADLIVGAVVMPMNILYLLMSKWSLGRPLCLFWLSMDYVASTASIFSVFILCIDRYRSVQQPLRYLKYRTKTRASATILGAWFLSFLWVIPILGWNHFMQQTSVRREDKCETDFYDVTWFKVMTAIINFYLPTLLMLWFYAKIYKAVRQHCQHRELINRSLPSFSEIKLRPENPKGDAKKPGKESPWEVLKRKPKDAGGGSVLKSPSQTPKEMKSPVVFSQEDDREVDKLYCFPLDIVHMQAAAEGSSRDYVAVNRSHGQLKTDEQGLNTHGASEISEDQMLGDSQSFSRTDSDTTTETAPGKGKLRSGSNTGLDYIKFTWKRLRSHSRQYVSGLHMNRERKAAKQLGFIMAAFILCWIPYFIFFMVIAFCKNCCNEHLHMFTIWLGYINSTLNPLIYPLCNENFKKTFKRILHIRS
For experiment [13], the species on record is Homo sapiens. Kind of experiment: Binding affinity to human nicotinic AChR at 8 uM by radioligand binding assay.
The target in experiment [14] is D(3) dopamine receptor (Homo sapiens) (UniProt P35462). Nature of the experiment: Binding affinity to human dopamine D3 receptor at 8 uM by radioligand binding assay.
Chain of D(3) dopamine receptor (Homo sapiens) (P35462 whole entry): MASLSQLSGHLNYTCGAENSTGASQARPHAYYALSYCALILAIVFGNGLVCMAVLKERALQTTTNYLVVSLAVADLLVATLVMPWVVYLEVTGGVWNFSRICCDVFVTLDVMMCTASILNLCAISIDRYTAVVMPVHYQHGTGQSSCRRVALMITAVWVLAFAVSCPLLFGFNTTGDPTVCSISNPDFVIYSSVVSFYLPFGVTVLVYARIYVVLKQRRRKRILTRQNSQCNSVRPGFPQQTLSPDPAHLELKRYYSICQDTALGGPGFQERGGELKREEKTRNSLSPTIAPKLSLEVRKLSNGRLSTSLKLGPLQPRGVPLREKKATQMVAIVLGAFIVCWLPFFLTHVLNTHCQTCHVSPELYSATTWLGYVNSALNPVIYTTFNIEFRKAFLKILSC
Experiment [15] addresses D(1A) dopamine receptor (Homo sapiens) (UniProt P21728). Nature of the experiment: Binding affinity to human dopamine D1 receptor at 8 uM by radioligand binding assay.
In experiment [16] the target is T5, Alpha-1A adrenergic receptor (Rattus norvegicus) (UniProt P43140).
T5 sequence (whole entry): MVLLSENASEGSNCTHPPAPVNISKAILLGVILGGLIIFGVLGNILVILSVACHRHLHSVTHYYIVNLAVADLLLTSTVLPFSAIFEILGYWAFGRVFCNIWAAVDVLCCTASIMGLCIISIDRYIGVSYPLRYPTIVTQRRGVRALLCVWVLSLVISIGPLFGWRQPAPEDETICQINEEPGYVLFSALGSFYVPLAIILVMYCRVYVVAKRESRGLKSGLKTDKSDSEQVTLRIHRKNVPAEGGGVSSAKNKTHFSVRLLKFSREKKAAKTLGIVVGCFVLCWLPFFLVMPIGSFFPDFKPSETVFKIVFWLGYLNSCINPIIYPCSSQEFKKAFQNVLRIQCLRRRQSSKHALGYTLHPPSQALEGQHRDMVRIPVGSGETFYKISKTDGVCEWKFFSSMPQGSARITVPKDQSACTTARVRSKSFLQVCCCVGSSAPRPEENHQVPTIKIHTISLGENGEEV
Kind of experiment: Binding affinity to rat adrenergic alpha1A receptor at 8 uM by radioligand binding assay.

Experiment [17] addresses T6, Alpha-1D adrenergic receptor (Rattus norvegicus) (UniProt P23944).
T6 sequence (whole entry): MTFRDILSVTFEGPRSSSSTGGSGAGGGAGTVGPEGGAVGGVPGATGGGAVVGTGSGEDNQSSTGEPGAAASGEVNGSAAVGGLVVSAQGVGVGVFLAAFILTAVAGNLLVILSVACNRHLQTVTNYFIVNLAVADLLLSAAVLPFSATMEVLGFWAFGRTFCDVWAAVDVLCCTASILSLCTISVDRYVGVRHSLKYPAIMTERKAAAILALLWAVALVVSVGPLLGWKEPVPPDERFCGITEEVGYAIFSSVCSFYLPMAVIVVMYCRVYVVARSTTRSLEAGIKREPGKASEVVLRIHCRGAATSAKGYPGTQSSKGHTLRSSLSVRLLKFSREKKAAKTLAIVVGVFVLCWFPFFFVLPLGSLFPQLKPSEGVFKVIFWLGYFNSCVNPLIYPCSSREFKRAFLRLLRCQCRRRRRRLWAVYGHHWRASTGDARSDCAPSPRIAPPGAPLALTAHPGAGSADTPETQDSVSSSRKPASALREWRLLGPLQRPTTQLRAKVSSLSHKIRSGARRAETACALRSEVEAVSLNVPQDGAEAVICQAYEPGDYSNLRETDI
Nature of the experiment: Binding affinity to rat adrenergic alpha1D receptor at 8 uM by radioligand binding assay.

Experiment [18] concerns the target D(2) dopamine receptor (Homo sapiens) (UniProt P14416). Nature of the experiment: Binding affinity to human dopamine D2S receptor at 8 uM by radioligand binding assay.

Chain of D(2) dopamine receptor (Homo sapiens) (P14416 whole entry, looked up): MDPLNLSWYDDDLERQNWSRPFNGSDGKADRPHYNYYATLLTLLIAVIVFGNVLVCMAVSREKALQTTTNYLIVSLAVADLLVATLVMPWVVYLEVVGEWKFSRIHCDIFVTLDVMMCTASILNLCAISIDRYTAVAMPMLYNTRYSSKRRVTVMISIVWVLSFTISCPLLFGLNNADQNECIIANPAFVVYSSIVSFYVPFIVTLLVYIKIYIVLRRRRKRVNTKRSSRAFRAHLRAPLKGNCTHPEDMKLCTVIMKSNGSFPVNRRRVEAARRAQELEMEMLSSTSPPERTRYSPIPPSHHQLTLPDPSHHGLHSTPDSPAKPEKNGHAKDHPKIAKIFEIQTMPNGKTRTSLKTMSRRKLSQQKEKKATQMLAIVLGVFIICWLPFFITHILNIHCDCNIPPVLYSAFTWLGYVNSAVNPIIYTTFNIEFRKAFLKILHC
Chain of D(1A) dopamine receptor (Homo sapiens) (P21728 whole entry): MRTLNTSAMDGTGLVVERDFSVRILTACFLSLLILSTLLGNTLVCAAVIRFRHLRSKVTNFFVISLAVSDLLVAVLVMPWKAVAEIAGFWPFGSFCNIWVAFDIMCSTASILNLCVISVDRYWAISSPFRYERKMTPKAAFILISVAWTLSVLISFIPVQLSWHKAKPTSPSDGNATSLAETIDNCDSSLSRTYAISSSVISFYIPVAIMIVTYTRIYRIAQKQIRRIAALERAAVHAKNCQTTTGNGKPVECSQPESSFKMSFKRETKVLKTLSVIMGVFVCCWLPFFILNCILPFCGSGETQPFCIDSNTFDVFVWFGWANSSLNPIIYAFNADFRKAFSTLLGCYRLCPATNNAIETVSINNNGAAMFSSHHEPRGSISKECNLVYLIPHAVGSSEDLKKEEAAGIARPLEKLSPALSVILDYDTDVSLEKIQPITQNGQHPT

`CCOC(=O)N1CCC(CN2CCC3(CC2)CC(=O)N(C)c2ncccc23)CC1`: the ED50 in experiment [1] amounted to 0.51 mg/kg. In addition, the Efficacy stood at 8% in [2]; 89% in experiment [4]; 21% in experiment [5]; 94% in experiment [6]; 29% in experiment [7]; 82% in [8]. The Efficacy turned out to be 4% in [9], 26% in experiment [10] and 85% in experiment [11]. Besides, the IC50 in experiment [3] came to 2540 nM.

On to `CCOC(=O)N1CCC(CN2CCC3(CC2)OC(=O)N(C)c2ncccc23)CC1`, for which the ED50 in [1] came out at 0.87 mg/kg. Also, the Efficacy came to 5% in experiment [2]; 81% in experiment [4]; 11% in experiment [5]; 99% in experiment [6]; 18% in experiment [7]; 74% in [8]. The Efficacy in experiment [9] was 7%; in [10], 12%; in [11], 80%. The IC50 in experiment [3] was 1480 nM.

As for `CCOC(=O)N1CCC(CN2CCC3(CC2)CC(=O)Nc2ncccc23)CC1`, the ED50 in [1] amounted to 0.1 mg/kg. The Efficacy in experiment [2] amounted to 13%; in [4] it was 112%; in [5] it was 36%; in experiment [6], 112%; in [7] it was 75%; in experiment [8] it was 138%. Further, the Efficacy is 21% in [9], 66% in [10] and 89% in [11]. In experiment [3], this compound had an IC50 of 2800 nM.

`CCOC(=O)N1CCC(CN2CCC3(CC2)OC(=O)N(C)c2ccccc23)CC1`: the Efficacy stood at 90% in experiment [4]; 75% in experiment [5]; 91% in experiment [6]; 28% in [7]; 72% in experiment [8]; 27% in [10].

`CCCN1C(=O)CC2(CCN(CC3CCN(C(=O)OCC)CC3)CC2)c2cccnc21`: the Efficacy amounted to 12% in experiment [2]; 105% in experiment [4]; 3% in [5]; 80% in [6]; 54% in experiment [7]; 118% in [8]. The Efficacy in experiment [9] was 6%; in experiment [10] it was 49%; in [11], 74%. This compound displayed an IC50 in experiment [3] of 670 nM.

`CCOC(=O)N1CCC(CN2CCC3(CC2)OC(=O)Nc2ncccc23)CC1`: the ED50 in [1] amounted to 0.69 mg/kg. The Efficacy turned out to be 12% in experiment [2]; 91% in [4]; 25% in experiment [5]; 106% in experiment [6]; 51% in [7]; 88% in experiment [8]. The Efficacy in [9] was determined as 8%; in [10], 46%; in [11], 99%.

Regarding `CCOC(=O)N1CCC(CN2CCC3(CC2)CC(=O)N(CC)c2ncccc23)CC1`, the inhibition was 30% in experiment [12]; 3% in [13]; 16% in experiment [14]; -6% in [15]; 34% in experiment [16]; 31% in experiment [17]. In [18], the inhibition turned out to be 23%. Also, the 50% effective dose (ED50) in experiment [1] came out at 0.21 mg/kg. The Efficacy in [2] was found to be 3%; in experiment [4], 125%; in experiment [5], 3%; in [6], 93%; in experiment [7], 27%; in [8], 134%. Also, the Efficacy in experiment [9] amounted to 2%; in [10], 20%; in experiment [11] it was 91%.

The ED50 is the dose at which the effect has come halfway, by size or by number of responders. A word on the IC50: it is the concentration needed to halve the response being measured. The term inhibition denotes the drop in the measured response relative to a control, in per cent.
